pIC50: −log10 of the molar value.
Tests used:
[1] = target: T1, 17β-HSD3 (Homo sapiens, UniProt P37058); assay: 17β-HSD3 scintillation proximity assay (SPA); assay type: biochemical; parameters: made in house; CHAPS-solubilised 100,000 x g supernatant; conditions: for 17β-HSD3 inhibitory activity in the SPA: FIG. 3B
T1 sequence (P37058 1-310): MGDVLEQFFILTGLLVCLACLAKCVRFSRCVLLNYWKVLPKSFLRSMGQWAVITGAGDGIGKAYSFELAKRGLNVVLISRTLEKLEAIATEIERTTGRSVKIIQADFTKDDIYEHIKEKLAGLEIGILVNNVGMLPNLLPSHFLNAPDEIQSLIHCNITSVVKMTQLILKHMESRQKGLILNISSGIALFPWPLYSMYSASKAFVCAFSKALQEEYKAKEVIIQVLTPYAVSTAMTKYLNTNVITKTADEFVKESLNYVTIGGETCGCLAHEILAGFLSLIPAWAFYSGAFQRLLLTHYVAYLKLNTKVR
Method: HEK293/17β-HSD3 cells were harvested by scraping or treatment with Cell Dissociation Buffer (Invitrogen) and collected in ice cold Phosphate Buffered Saline (PBS) containing a protease inhibitor cocktail (Complete Tabs, Roche Diagnostics). The cells were then pelleted by centrifugation at 1000 rpm and washed once more in the same buffer. The cells were then resuspended in 2× the cell pellet volume with ice cold lysis buffer (40 mM Tris-HCl pH7.5, 2 mM DTT, 1 mM EDTA, 10% Glycerol (v/v), 0.5% CHAPS (w/v), 1M 1-(3-sulfopropyl)pyridinium hydroxide, Complete Tab(s)) and dounce homogenized on ice. The crude lysate was then incubated on ice for 60 minutes to allow for membrane protein solubilization, followed by centrifugation at 100,000×g for 60 minutes at 4° C. The supernatant was then removed and dialyzed overnight at 4° C. against the enzyme storage buffer (40 mM Tris-HCl pH 7.5, 40 mM KCl, 2 mM DTT, 1 mM EDTA, 20% Glycerol (v/v), Complete Tab(s)). Protein concentration was determined by the Bradford assay, the enzyme was aliquotted, and stored at −80° C. Activity was assessed using the SPA described below.
SPA beads conjugated to anti-mouse IgG were incubated overnight in SPA Bead Buffer (50 mM Tris pH 8.0, 10% Glycerol (v/v)), with anti-Testosterone monoclonal antibody (2 μg antibody per 1 mg of SPA beads) under gentle rotation. The antibody saturated bead complex was then spun down at 500 rpm for 10 minutes at 4° C. and the beads were resuspended in SPA Bead Buffer at a final concentration of 0.5 mg/160 μL. The anti-T/SPA Beads were then stored at 4° C. until needed. Enzymatic assays were conducted in 30 μL total reaction volumes in 96-well white Optiplates (Perkin Elmer). The reaction buffer consisted of 50 mM MES pH 6.0, 2 mM DTT, 0.1% CHAPS, 3 mM NADPH, 10% Glycerol (v/v), 850 nM 4-Androstene-3,17-Dione, and 50 nM [3H]4-Androstene-3,17-Dione (Specific Activity 70–110Ci/mmol). Compounds were diluted such that the final concentration of ethanol and DMSO would not exceed 3% (v/v) and 1% (v/v) respectively, corresponding to concentrations that had little or no effect on enzymatic activity (data not shown). Previously prepared and frozen 17β-HSD3 enzyme was diluted into ice cold buffer containing 50 mM Mes, 40 mM KCl, 2 mM DTT, 1 mM EDTA, and 10% glycerol (v/v) and added last to the reaction mixture. The reaction was allowed to proceed for 60 minutes at room temperature and was stopped by the addition of 10 μL of 0.1N HCl. After the reactions were stopped, an excess of the anti-T/SPA Beads (0.5 mg) were added to each well to a final volume of 200 μL. The plates were sealed and shaken at ˜200 rpm on an orbital shaker at room temp for at least 90 minutes or overnight at 4° C. After allowing the beads to settle, the amount of [3H]Testosterone produced in each well was determined by scintillation counting on a Perkin Elmer TopCount instrument and collected as DPMs. The data was then analyzed and percent inhibition and/or IC50 values, based on 10 point serially diluted curves in duplicate or triplicate, were calculated using Microsoft Excel and XLFit programs. […] Input samples and unbound supernatants, from the enzymatic reactions, were quantitated by scintillation counting to aid in the calculation of bound versus free testosterone produced. Km values were calculated using the Lineweaver-Burke formula and plots where 1/v=(Km+[s])/(Vmax [s]). […]

[2] = target: T1, 17β-HSD3; assay: 17β-HSD3 SEAP assay (PSA reporter) in MDA MB 453/17β-HSD3 cells; assay type: cell-based; parameters: expressed in transfected cells; conditions: MDA-MB453-17β-HSD3 cells, PSA-SEAP reporter, read-out: IC50, 17β-HSD3 cell based activity
Method: Cultured MDA MB 453/17β-HSD3 cells were trypsinized, spun at 1000 rpm for 10 minutes, and resuspended in DMEM/10% cFBS supplemented with 5 mM BES at a concentration of 4×10^7 cells per mL. The cells (aliquots of 1×10^7 cells) were then transiently transfected with 3 μg of the PSA-SEAP construct by electroporation at 0.22 kVolts and 960 μFD with a time constant of […]. After a short recovery period, the cells were spun down and resuspended in DMEM/10% cFBS and plated into 96-well tissue culture plates (5×10^5 cells per well in 50 μL). After overnight adherence, the compounds were diluted in DMEM/10% and cFBS was added to the cells. 24 hours later, the medium was removed, fresh media containing the compounds was added in the presence of 10 nM Androstenedione, and this mixture was allowed to incubate for 24 hours. 25 μL of the culture supernatant was then removed and plated into 96-well black Optiplates (Perkin Elmer) for SEAP measurement as described by the reagent manufacturer (Tropix). Briefly, the supernatant was heat inactivated at 65° C. for 30 minutes and then allowed to cool to room temperature. Assay buffer (25 μL, Tropix) was then added and allowed to mix for 5 minutes followed by the addition of the Reaction buffer (25 μL, Tropix) and the plates were then incubated for 20 minutes in the dark. Plates were then read using a Packard Instruments TopCount with luminescent detection and signal was captured for 10 seconds per well and photon emission (cps) was averaged. A standard MTS assay (Promega) as described by the manufacturer, was performed in parallel to normalize the data based on cell numbers. Data analysis including percent inhibition and IC50 determination, based on 10 point serially diluted curves in duplicate, was then performed using Microsoft Excel and XLFit.
The analysis of 17β-HSD3 steroid conversion by TLC is hampered by the limitation to examine large numbers of compounds. […] To test this system, a prostate specific antigen (PSA) reporter plasmid was transfected into MDA-MB453 cells stably expressing 17β-HSD3 and stimulated with different concentrations of androstenedione (FIG. 5B).
To evaluate the suitability of this cellular assay for monitoring 17β-HSD3 cell based activity, the inhibitory effects of 18β-glycyrrhetinic acid and […] were examined.

C[C@]12C=CC(=O)C=C1C(=O)C[C@@H]1[C@@H]2CC[C@]2(C)C(=O)CC[C@@H]12 [1,4-androstadiene-1,6,17-trione]
17β-HSD3 inhibitory activity in the SPA [1]: potent inhibitory activity | pIC50 ([2]; FIG. 5C): 5.80

COc1ccccc1CCNC(=O)c1cc(Oc2ccccc2)ccc1NC(=O)c1ccc(O)c(Cl)c1 [2-[(3-chloro-4-hydroxybenzoyl)amino]-N-[2-(2-methoxyphenyl)ethyl]-5-phenoxybenzamide]
pIC50 ([1]; read-out: IC50, 17β-HSD3 biochemical activity): 7.22 | pIC50 [2]: 6.52

CC1(C)[C@@H](O)CC[C@]2(C)[C@H]3C(=O)C=C4[C@@H]5C[C@@](C)(C(=O)O)CC[C@]5(C)CC[C@@]4(C)[C@]3(C)CC[C@@H]12 [18β-glycyrrhetinic acid]
17β-HSD3 inhibitory activity in the SPA [1]: potent inhibitory activity | pIC50 ([2]; FIG. 5C): 5.42

— patent US7138246B2, “Methods for identifying or screening for agents that modulate 17β-HSD3” (Bristol-Myers Squibb Company, priority 2004, dated 2006)
